Results taken from patent US20050272784A1 (priority 2004, published 2005).

The compounds below were run on type III protein secretion system of P. aeruginosa PA103 (ExoU secretion) (assay: Tertiary assay: Type III-dependent secretion of ExoU by P. aeruginosa PA103). Conditions: Pseudomonas aeruginosa, ExoU Conc 100 μM, read-out: ExoU % Inh.
Assay type: cell-based
Description: Tertiary assay: inhibition of Type III protein secretion of effectors from a Pseudomonas aeruginosa system. Type III protein secretion is used by P. aeruginosa to secrete several essential virulence determinants. One effector of the type III protein secretion system of P. aeruginosa PA103 is the virulence determinants ExoU.
The amount of Type III-dependent secretion of ExoU by P. aeruginosa PA103 can be determined in a cell-based assay by quantification of the 73.9 kDa ExoU protein scereted into the extracellular medium. Such quantitation can be achieved by growing strain PA103 in a deferrated medium in the presence of nitrilotriacetic acid (an inducer of Type III protein secretion in P. aeruginosa) and either in the presence or absence of putative inhibitors. After a prolonged growth period, the cells are sedimented and the supernatants concentrated by ammonium sulfate precipitation. The proteins in the resuspended pellets are separated by electrophoresis on SDS-polyacrylamide gels. After staining gels with Colloidal Blue™, the 73.9 kDa ExoU band is quantitated by scanning through an imager. The effects of inhibitors on the intensity of the ExoU band may be measured relative to that of untreated controls.
For O=C(NC(Cc1ccc(Cl)cc1)C(=O)O)c1nc(-c2ccc(-c3ccccc3)cc2)oc1-c1cccc(C(F)(F)F)c1 (stereo not shown) [Compound 60, 2-{[2-Biphenyl-4-yl-5-(3-trifluoromethylphenyl)oxazole-4-carbonyl]amino}-3-(4-chlorophenyl)propionic acid], the inhibition at 100 µM was 90.2%.

Same assay, conditions: Pseudomonas aeruginosa, ExoU secreted into extracellular medium
O=C(N[C@@H](COCc1ccccc1)C(=O)O)c1nc(-c2ccc(C(F)(F)F)cc2)oc1-c1cc2ccccc2o1 [Compound 35, (S)-2-{[5-Benzofuran-2-yl-2-(4-trifluoromethylphenyl)oxazole-4-carbonyl]amino}-3-benzyloxypropionic acid] gave an IC50 of 79.8 µM.
Compound N#Cc1ccc(-c2oc(-c3ccc(C(F)(F)F)cc3)nc2C(=O)NC(CSCc2ccccc2)C(=O)O)cc1 (stereo in doubt) [Compound 1, (R)-3-Benzylsulfanyl-2-{[5-(4-cyanophenyl)-2-(4-trifluoromethylphenyl)oxazole-4-carbonyl]amino}propionic acid] has an IC50 of 70.7 µM.
Compound O=C(N[C@H](COCc1ccccc1)C(=O)O)c1nc(-c2ccc(-c3ccccc3)cc2)oc1-c1cccc(C(F)(F)F)c1 [Compound 71, (R)-3-Benzyloxy-2-{[2-biphenyl-4-yl-5-(3-trifluoromethylphenyl)oxazole-4-carbonyl]amino}propionic acid] has an IC50 of 45.3 µM.
With O=C(N[C@@H](COCc1ccccc1)C(=O)O)c1nc(-c2ccc(C(F)(F)F)cc2)oc1C#Cc1ccccc1 [Compound 10, (S)-3-Benzyloxy-2-{[5-phenylethynyl-2-(4-trifluoromethylphenyl)oxazole-4-carbonyl]amino}propionic acid] the IC50 was 42.4 µM.
Work on O=C(N[C@@H](COCc1ccccc1)C(=O)O)c1nc(-c2ccc(-c3ccccc3)cc2)oc1-c1ccc(Cl)cc1Cl [Compound 61, (S)-3-Benzyloxy-2-{[2-biphenyl-4-yl-5-(2,4-dichlorophenyl)oxazole-4-carbonyl]amino}propionic acid] yielded an IC50 of 66.1 µM.
For O=C(N[C@@H](COCc1ccccc1)C(=O)O)c1nc(-c2ccc(C(F)(F)F)cc2)oc1-c1cnc2ccccc2n1 [Compound 53, (S)-3-Benzyloxy-2-{[5-quinoxalin-2-yl-2-(4-trifluoromethylphenyl)oxazole-4-carbonyl]amino}propionic acid], the IC50 was 64.6 µM.
Cc1nc(-c2ccc(-c3oc(-c4ccc(C(F)(F)F)cc4)nc3C(=O)N[C@@H](COCc3ccccc3)C(=O)O)cc2)no1 [Compound 66, (S)-3-Benzyloxy-2-{[5-[4-(5-methyl[1,2,4]oxadiazol-3-yl)phenyl]-2-(4-trifluoromethylphenyl)oxazole-4-carbonyl]amino}propionic acid] showed an IC50 of 12.5 µM.
In the case of O=C(NC(Cc1ccc(Cl)cc1)C(=O)O)c1nc(-c2ccc(C(F)(F)F)cc2)oc1-c1cc2ccccc2o1 (stereo not shown) [Compound 42, 2-{[5-Benzofuran-2-yl-2-(4-trifluoromethylphenyl)oxazole-4-carbonyl]amino}-3-(4-chlorophenyl)propionic acid], the IC50 is reported as 27.1 µM.
Compound O=C(N[C@@H](CSCc1ccccc1)C(=O)O)c1nc(-c2ccc(C(F)(F)F)cc2)oc1-c1ccc(-c2ccc(F)cc2)nc1 [Compound 34, (R)-3-Benzylsulfanyl-2-{[5-[6-(4-fluorophenyl)pyridin-3-yl]-2-(4-trifluoromethylphenyl)oxazole-4-carbonyl]amino}propionic acid] has an IC50 of 47.4 µM.
O=C(N[C@@H](CSCc1ccccc1)C(=O)O)c1nc(-c2ccc(C(F)(F)F)cc2)oc1-c1ccc(-c2cccnc2)cc1 [Compound 18, (R)-3-Benzylsulfanyl-2-{[5-(4-pyridin-3-yl-phenyl)-2-(4-trifluoromethylphenyl)-oxazole-4-carbonyl]amino}propionic acid] showed an IC50 of 89.1 µM.
In the case of O=C(NC(Cc1ccc(Cl)cc1)C(=O)O)c1nc(-c2ccc(-c3ccccc3)cc2)oc1-c1cccc(C(F)(F)F)c1 (stereo not shown) [Compound 15, 2-{[2-Biphenyl-4-yl-5-(3-trifluoromethylphenyl)oxazole-4-carbonyl]amino}-3-(4-chlorophenyl)propionic acid], the IC50 is reported as 79.9 µM.
O=C(N[C@@H](CSCc1ccccc1)C(=O)O)c1nc(-c2ccc(C(F)(F)F)cc2)oc1-c1ccc(OCc2ccccc2)cc1 [Compound 17, (R)-2-{[5-(4-Benzyloxyphenyl)-2-(4-trifluoromethylphenyl)oxazole-4-carbony]amino}-3-benzylsulfanylpropionic acid] showed an IC50 of 34.3 µM.
With O=C(N[C@H](Cc1ccc(Cl)cc1)C(=O)O)c1nc(-c2cccc3ccccc23)oc1-c1ccc(C(F)(F)F)nc1 [Compound 64, (R)-3-(4-Chlorophenyl)-2-{[2-naphthalen-1-yl-5-(6-trifluoromethylpyridin-3-yl)oxazole-4-carbonyl]amino}propionic acid] the IC50 was 51.4 µM.
With Cc1nc(-c2ccc(-c3oc(-c4ccc(C(F)(F)F)cc4)nc3C(=O)N[C@H](Cc3ccc(Cl)cc3)C(=O)O)cc2)no1 [Compound 67, 3-(4-Chlorophenyl)-2-{[5-[4-(5-methyl[1,2,4]oxadiazol-3-yl)phenyl]-2-(4-trifluoromethylphenyl)oxazole-4-carbonyl]amino}propionic acid] the IC50 was 12.5 µM.
In the case of O=C(N[C@@H](CSCc1ccccc1)C(=O)O)c1nc(-c2ccc(C(F)(F)F)cc2)sc1-c1ccc(OCc2ccccc2)cc1 [Compound 7, (R)-2-{[5-(4-Benzyloxyphenyl)-2-(4-trifluoromethylphenyl)thiazole-4-carbonyl]amino}-3-benzylsulfanylpropionic acid], the IC50 is reported as 54.4 µM.
O=C(N[C@@H](COCc1ccccc1)C(=O)O)c1nc(-c2ccc(C(F)(F)F)cc2)oc1-c1ccc2ccccc2n1 [Compound 27, (S)-3-Benzyloxy-2-{[5-quinolin-2-yl-2-(4-trifluoromethylphenyl)oxazole-4-carbonyl]amino}propionic acid] was tested, and the IC50 was 93.1 µM.
For O=C(N[C@@H](Cc1ccc(Cl)cc1)C(=O)O)c1nc(-c2ccc(C(F)(F)F)cc2)oc1-c1ccc(-c2ccccc2)cc1 [Compound 73, (S)-2-{[5-Biphenyl-4-yl-2-(4-trifluoromethylphenyl)oxazole-4-carbonyl]amino}-3-(4-chlorophenyl)propionic acid], the IC50 was 56.1 µM.
O=C(N[C@@H](CSCc1ccccc1)C(=O)O)c1nc(-c2ccc(C(F)(F)F)cc2)oc1-c1ccc(-c2ccccc2)nc1 [Compound 33, (R)-3-Benzylsulfanyl-2-{[5-(6-phenylpyridin-3-yl)-2-(4-trifluoromethylphenyl)oxazole-4-carbonyl]amino}propionic acid] was tested, and the IC50 was 48.9 µM.
O=C(NC(Cc1ccc(Cl)cc1)C(=O)O)c1nc(-c2ccc(-c3ccccc3)cc2)oc1-c1cnc(Cl)c(Cl)c1 (stereo not shown) [Compound 45, 2-{[2-Biphenyl-4-yl-5-(5,6-dichloropyridin-3-yl)oxazole-4-carbonyl]amino}-3-(4-chlorophenyl)propionic acid] gave an IC50 of 51.8 µM.
With O=C(N[C@@H](CSCc1ccccc1)C(=O)O)c1nc(-c2ccc(C(F)(F)F)cc2)oc1-c1ccc(N2CCCCC2)nc1 [Compound 14, (R)-3-Benzylsulfanyl-2-{[5-(3,4,5,6-tetrahydro-2H-[1,2′]bipyridin-5′-yl)-2-(4-trifluoromethylphenyl)oxazole-4-carbonyl]amino}propionic acid] the IC50 was 62.8 µM.
Compound O=C(N[C@@H](COCc1ccccc1)C(=O)O)c1nc(-c2ccc(C(F)(F)F)cc2)oc1-c1ccc(-c2ccccc2)cc1 [Compound 63, (S)-3-Benzyloxy-2-{[5-biphenyl-4-yl-2-(4-trifluoromethylphenyl)oxazole-4-carbonyl]amino}propionic acid] has an IC50 of 37.3 µM.
With O=C(N[C@@H](COCc1ccccc1)C(=O)O)c1nc(-c2ccc(-c3ccccc3)cc2)nn1-c1ccc(Cl)c(Cl)c1 [Compound 68, (S)-3-Benzyloxy-2-{[5-biphenyl-4-yl-2-(3,4-dichlorophenyl)-2H-[1,2,4]triazole-3-carbonyl]amino}propionic acid] the IC50 was 39.2 µM.
Work on O=C(N[C@@H](COCc1ccccc1)C(=O)O)c1nc(-c2ccc(Oc3ccccc3)cc2)oc1-c1ccc(Cl)c(Cl)c1 [Compound 13, (S)-3-Benzyloxy-2-{[5-(3,4-dichlorophenyl)-2-(4-phenoxyphenyl)-oxazole-4-carbonyl]amino}propionic acid] yielded an IC50 of 19.3 µM.
Work on O=C(N[C@@H](CSCc1ccccc1)C(=O)O)c1nc(-c2cccc3ccccc23)oc1-c1ccc(C(F)(F)F)nc1 [Compound 65, (R)-3-Benzylsulfanyl-2-{[2-naphthalen-1-yl-5-(6-trifluoromethylpyridin-3-yl)oxazole-4-carbonyl]amino}propionic acid] yielded an IC50 of 53.1 µM.
O=C(N[C@@H](CSCc1ccccc1)C(=O)O)c1nc(-c2ccc(C(F)(F)F)cc2)oc1C#Cc1ccccc1 [Compound 9, (R)-3-Benzylsulfanyl-2-{[5-phenylethynyl-2-(4-trifluoromethylphenyl)oxazole-4-carbonyl]amino}propionic acid] was tested, and the IC50 was 26.7 µM.
O=C(N[C@@H](CSCc1ccccc1)C(=O)O)c1nc(-c2ccc(C(F)(F)F)cc2)oc1-c1ccc(-c2ccncc2)cc1 [Compound 19, (R)-3-Benzylsulfanyl-2-{[5-(4-pyridin-4-yl-phenyl)-2-(4-trifluoromethylphenyl)oxazole-4-carbonyl]amino}propionic acid] gave an IC50 of 78.2 µM.
Compound O=C(N[C@@H](CSCc1ccccc1)C(=O)O)c1nc(-c2ccc(C(F)(F)F)cc2)oc1-c1cc2ccccc2s1 [Compound 23, (R)-2-{[5-Benzo[b]thien-2-yl-2-(4-trifluoromethylphenyl)oxazole-4-carbonyl]amino}-3-benzylsulfanylpropionic acid] has an IC50 of 40.7 µM.
